One series deals with hERG (Homo sapiens (Human), UniProt Q12809). The series is described as follows: hERG current in hERG-transfected HEK293 cells (Protocol 2, SyncroPatch 384PE). Format: cell-based. The following applies: Protocol 2, HEK293 cells. The method, then:
The compound, vehicle control and positive control were tested on hERG-transfected HEK293 cells. A human embryonic kidney cell line (HEK293) with a stable transfection of hERG (Zhou Z et al. Biophysical Journal 1998. 74, 230-241; McDonald T. V. et al, Nature 1997. 388, 289-292) was used (University of Wisconsin, Madison, USA). The cells were kept in culture in MEM (Minimum Essential Medium, Gibco) which was supplemented with (amounts indicated added to 500 ml MEM): 5 ml L-Glutamine-Penicillin-Streptomycin (Sigma), 50 ml Fetal Bovine serum (Bio-Whittaker), 5 ml Non-essential Amino Acids 100× (Gibco), 5 mil sodium pyruvate 100 mM (Gibco) and 4 ml geneticin 50 mg/ml (Gibco) using T175 flasks.
Cells were harvested as described below using Accumax™ (Sigma) as the dissociating reagent. Cells were then resuspended in a mixture of 33% DMEM/F12 (Dulbecco's Modified Eagle Medium/Nutrient Mixture F-12—Sigma) media/67% extracellular physiological solution. […]
The whole cell patch clamp technique on transfected cells allows the study of ion-channels with no—or limited interference from other ion-channels. […] All cells were recorded in the whole cell mode of the patch clamp technique. […]
After the whole cell mode was achieved, test pulses were given for ˜10 minutes to quantify the hERG current in control conditions. […]
(In general: The hERG channel carries a current that helps repolarise heart muscle cells.)

A further series has as its system MOLM-14 cells. The series can be described thus: Proliferation assay (spheroid), MOLM-14. It counts as cell-based. The following applies: Homo sapiens, 8 days, read-out: spheroid assay_OneTime MOLM-14 IC50.
Series [1] is described as follows: Mouse PK (in vivo T1/2 and oral bioavailability). The following applies: fasted male CD-1 mice, single IV 0.5 or 1.0 mg/kg; formulating agent: A HP-β-CD, A3 Pyrogen free water. The protocol: 3) Mouse PK (In Vivo T1/2 and Oral Bioavailability)
In vivo pharmacokinetics (PK) were assessed in fasted male CD-1 mice (age 6-8 weeks) following a single intravenous (IV, 0.5 or 1.0 mg/kg administered at 2.5 ml/kg) or oral (PO, 5 mg/kg administered at 10 ml solution/kg) dose of test article formulated in a 20% (w:vol) HP-β-CD solution or in Pyrogen free water.
Plasma and/or whole blood samples were collected from the dorsal metatarsal vein at desired timepoints via serial capillary microsampling (approx. 0.03 mL) using EDTA as an anticoagulant. Concentrations of compound in the plasma and blood samples were analyzed using a qualified LC-MS/MS method. In silico analysis of main pharmacokinetic parameters was performed using WinNonlin (Phoenix™, version 6.1) or similar software.)

In the next series the test system is OCI-AML3 tumors. The series can be described thus: Efficacy study in disseminated OCI-AML3 model. Format: in vivo, SCID beige mice. The method, then:
Day 0 is the day of tumor cell implantation and study initiation.
Median survival was determined utilizing Kaplan-Meier survival analysis.

The term pIC50 denotes the negative decadic logarithm of the IC50, by convention in mol/L.

The structures appear in SMILES notation. pIC50: −log10 of the molar value. Where a name gives a salt, the structure may show the parent alone.

Chain of hERG (Q12809 whole entry): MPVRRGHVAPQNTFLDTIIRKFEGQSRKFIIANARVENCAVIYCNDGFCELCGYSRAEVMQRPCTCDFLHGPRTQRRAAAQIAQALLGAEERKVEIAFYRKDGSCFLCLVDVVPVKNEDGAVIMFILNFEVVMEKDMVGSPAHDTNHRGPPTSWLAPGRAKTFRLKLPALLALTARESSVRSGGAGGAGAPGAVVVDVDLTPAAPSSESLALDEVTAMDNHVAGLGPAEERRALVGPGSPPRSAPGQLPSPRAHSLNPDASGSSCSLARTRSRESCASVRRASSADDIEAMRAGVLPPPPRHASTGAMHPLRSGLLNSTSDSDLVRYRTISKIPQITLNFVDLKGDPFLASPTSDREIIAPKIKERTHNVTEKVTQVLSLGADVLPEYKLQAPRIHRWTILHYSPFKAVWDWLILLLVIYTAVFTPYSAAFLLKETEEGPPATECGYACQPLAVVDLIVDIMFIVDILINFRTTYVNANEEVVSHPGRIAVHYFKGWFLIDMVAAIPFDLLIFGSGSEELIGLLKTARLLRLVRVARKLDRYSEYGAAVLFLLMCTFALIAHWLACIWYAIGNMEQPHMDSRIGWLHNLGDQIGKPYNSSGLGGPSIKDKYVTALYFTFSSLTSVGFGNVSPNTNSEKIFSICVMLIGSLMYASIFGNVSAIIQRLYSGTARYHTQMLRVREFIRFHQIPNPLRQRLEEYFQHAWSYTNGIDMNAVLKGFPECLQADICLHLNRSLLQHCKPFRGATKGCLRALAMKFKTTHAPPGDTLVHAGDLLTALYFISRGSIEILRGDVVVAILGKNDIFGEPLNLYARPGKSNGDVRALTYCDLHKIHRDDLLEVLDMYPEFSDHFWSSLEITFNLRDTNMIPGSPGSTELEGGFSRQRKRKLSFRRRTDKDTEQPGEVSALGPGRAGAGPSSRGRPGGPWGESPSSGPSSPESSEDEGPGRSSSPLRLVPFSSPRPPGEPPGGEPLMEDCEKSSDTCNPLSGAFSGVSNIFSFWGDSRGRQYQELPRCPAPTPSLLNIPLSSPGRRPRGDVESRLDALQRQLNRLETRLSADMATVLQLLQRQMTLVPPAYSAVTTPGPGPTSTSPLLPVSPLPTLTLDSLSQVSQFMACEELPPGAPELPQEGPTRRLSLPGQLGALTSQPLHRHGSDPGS

As to `CCN(C(=O)c1cc(F)ccc1Oc1nncnc1N1CCC2(C1)CN([C@H](CCCNCCOC)C(C)C)C2)C(C)C` [Compound 11, (R)-N-ethyl-5-fluoro-N-isopropyl-2-((5-(2-(6-((2-methoxyethyl)amino)-2-methylhexan-3-yl)-2,6-diazaspiro[3.4]octan-6-yl)-1,2,4-triazin-6-yl)oxy)benzamide], the pIC50 against hERG was < 4.52; in the series with MOLM-14 cells it was 7.68.
As for `CCN(C(=O)c1cc(F)ccc1Oc1nncnc1N1CCC2(C1)CN([C@H](CCCN(C)CCOC)C(C)C)C2)C(C)C` [Compound A3, (R)-N-ethyl-5-fluoro-N-isopropyl-2-((5-(2-(6-((2-methoxyethyl) (methyl)amino)-2-methylhexan-3-yl)-2,6-diazaspiro[3.4]octan-6-yl)-1,2,4-triazin-6-yl)oxy) benzamide oxalate], in series [1], the “In vivo T1/2 (IV)” value came to 9.0 h. Further, the results for the “median days of survival” value in the series on OCI-AML3 tumors (30 mg/kg PO daily for 28 days), in the series with OCI-AML3 tumors (50 mg/kg PO daily for 28 days) and in the series on OCI-AML3 tumors (100 mg/kg PO daily for 28 days) were 75.5 days, 58.5 days and 75 days, respectively.
